As a reminder, the Kd is a measure of binding affinity in units of concentration. The IC50 is the midpoint of a concentration-inhibition curve.

Experimental findings from ChEMBL document CHEMBL4431377, “Design, Synthesis, and Characterization of Sulfamide and Sulfamate Nucleotidomimetic Inhibitors of hHint1” (ACS Med Chem Lett, 2016) are described below.

Each structure is given as a SMILES string.

For data set [1], the target named is T1, Adenosine 5'-monophosphoramidase HINT1 (Homo sapiens, UniProt P49773). Briefly: Binding affinity to His-tagged human full length HINT1 expressed in Rosetta2 pLysS cells by isothermal titration calorimetric assay.
A short description of data set [2]: Aqueous solubility of the compound in aqueous buffer at 5 mM. In kind it is physicochemical. Particulars: 5000 µM.
The target of data set [3] is T1, Adenosine 5'-monophosphoramidase HINT1. Nature of the data set: Inhibition of His-tagged human full length HINT1 expressed in Rosetta2 pLysS cells using TrpAMP as substrate measured for 2 to 30 mins by fluorescence assay.
Data set [4] can be described thus: Aqueous solubility of the compound in aqueous buffer at 20 mM. Type of data set: physicochemical. The settings on record: 20000 µM.
A short description of data set [5]: Stability of the compound in PBS buffer assessed as cyclonucleoside formation at 50 to 100 uM by HPLC analysis. Type of data set: physicochemical.
The target of data set [6] is T1, Adenosine 5'-monophosphoramidase HINT1. Nature of the data set: Binding affinity to recombinant human HINT1 by isothermal titration calorimetric assay.

T1 sequence (P49773 whole entry): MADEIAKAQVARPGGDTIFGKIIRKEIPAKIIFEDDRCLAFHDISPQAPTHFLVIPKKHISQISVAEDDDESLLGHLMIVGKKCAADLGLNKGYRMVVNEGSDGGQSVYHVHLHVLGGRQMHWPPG

Regarding `CCN(CC)CC.Nc1nc2c(ncn2[C@@H]2O[C@H](CNS(=O)(=O)NC(=O)CCc3c[nH]c4ccccc34)[C@@H](O)[C@H]2O)c(=O)[nH]1`, the equilibrium dissociation constant (Kd) in data set [1] came out at 920 nM. The solubility entry in data set [2] is on record as “Soluble”.

For the compound `CCCC(=O)NS(=O)(=O)OC[C@H]1O[C@@H](n2cnc3c(=O)[nH]c(N)nc32)[C@H](O)[C@@H]1O.CCN(CC)CC`, the dissociation constant Kd in data set [1] was determined as 2900 nM. Moreover, in data set [2], the solubility entry is recorded as “Soluble”.

On to `Nc1ncnc2c1ncn2[C@@H]1O[C@H](CNS(=O)(=O)NC(=O)CCCC[C@@H]2SC[C@@H]3NC(=O)N[C@@H]32)[C@@H](O)[C@H]1O`, for which, in data set [3], half-maximal inhibition (IC50) was put at 1000 nM and the inhibition entry was “Dose-dependent effect”. This compound yielded a Kd in data set [1] of 320 nM.

With `CCN(CC)CC.O=C(CCc1c[nH]c2ccccc12)NS(=O)(=O)OC[C@H]1O[C@@H](n2cnc3c2ncn2ccnc32)[C@H](O)[C@@H]1O`, the solubility entry in data set [4] was “Soluble”. The Stability entry in data set [5] was “Stable”.

For the compound `CCN(CC)CC.Nc1nc2c(ncn2[C@@H]2O[C@H](COS(=O)(=O)NC(=O)CCc3c[nH]c4ccccc34)[C@@H](O)[C@H]2O)c(=O)[nH]1`, the Kd in data set [1] came to 810 nM. The solubility result in data set [2] is listed as “Soluble”.

Turning to `Nc1nc2c(ncn2[C@@H]2O[C@H](COC(=O)NCCc3c[nH]c4ccccc34)[C@@H](O)[C@H]2O)c(=O)[nH]1`, in data set [3], half-maximal inhibition (IC50) required 25500 nM and the inhibition result was “Dose-dependent effect”. Further, the equilibrium dissociation constant (Kd) in data set [6] came out at 3650 nM.
